From BindingDB's records for doi:10.7270/Q2DV1HJQ (The Scripps Research Institute Molecular Screening Center, 2014)

What follows are compounds tested against Disintegrin and metalloproteinase domain-containing protein 17 (Homo sapiens, UniProt P78536) (assay: ADAM17 protease inhibitors, dose response, counter-screen for ADAM10 exosite inhibitor project, biochemical, quenched FRET substrate (AID 743253)).
Sequence of Disintegrin and metalloproteinase domain-containing protein 17 (P78536 whole entry, the tested form may be a part): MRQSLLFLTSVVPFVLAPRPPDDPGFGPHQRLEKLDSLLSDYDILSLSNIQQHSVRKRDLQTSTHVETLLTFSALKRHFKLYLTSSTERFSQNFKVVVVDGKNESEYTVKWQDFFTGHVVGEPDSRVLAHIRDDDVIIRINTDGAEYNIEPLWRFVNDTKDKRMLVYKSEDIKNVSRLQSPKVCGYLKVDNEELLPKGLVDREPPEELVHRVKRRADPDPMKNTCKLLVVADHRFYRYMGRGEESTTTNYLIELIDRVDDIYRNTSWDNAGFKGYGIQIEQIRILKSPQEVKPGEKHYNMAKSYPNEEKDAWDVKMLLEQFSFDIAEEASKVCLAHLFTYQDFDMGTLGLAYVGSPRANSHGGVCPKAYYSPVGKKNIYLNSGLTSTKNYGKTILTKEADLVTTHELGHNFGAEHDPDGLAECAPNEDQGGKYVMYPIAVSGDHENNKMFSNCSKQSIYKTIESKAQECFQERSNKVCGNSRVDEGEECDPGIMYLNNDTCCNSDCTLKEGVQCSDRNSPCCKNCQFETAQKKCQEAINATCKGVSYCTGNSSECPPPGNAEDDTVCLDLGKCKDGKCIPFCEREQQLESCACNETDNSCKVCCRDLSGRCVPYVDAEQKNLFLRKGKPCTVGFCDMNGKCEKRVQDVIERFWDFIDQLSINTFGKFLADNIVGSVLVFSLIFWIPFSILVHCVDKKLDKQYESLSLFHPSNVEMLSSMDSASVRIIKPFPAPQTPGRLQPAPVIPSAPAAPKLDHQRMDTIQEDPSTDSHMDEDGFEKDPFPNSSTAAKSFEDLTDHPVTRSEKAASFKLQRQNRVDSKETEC
Compound `COc1ccc(N2C(=O)NC(=O)C(=Cc3c[nH]c4ccc(Br)cc34)C2=O)c(OC)c1` [(5E)-5-[(5-bromo-1H-indol-3-yl)methylene]-1-(2,4-dimethoxyphenyl)pyrimidine-2,4,6(1H,3H,5H)-trione] has an IC50 of 12 µM.
`N#CCSc1nc2cc(C(=O)N3CCC(C(N)=O)CC3)ccc2c2nc3ccccc3n12` [1-({6-[(cyanomethyl)thio]benzimidazo[1,2-c]quinazolin-3-yl}carbonyl)piperidine-4-carboxamide] gave an IC50 of 69.6 µM.
`O=C1C=CC([N+](=O)[O-])=CC1CN=Nc1ccccn1` (stereo not drawn) [MLS000585015] showed an IC50 of 9.75 µM.
